Measured values: ChEMBL document CHEMBL1145498, “A systematic interaction map of validated kinase inhibitors with Ser/Thr kinases” (Proc Natl Acad Sci U S A, 2007)

Key:
[1] = molecular target: Calcium/calmodulin-dependent protein kinase type II subunit delta (Homo sapiens) (UniProt Q13557)
[2] = molecular target: Calcium/calmodulin-dependent protein kinase type II subunit gamma (Homo sapiens) (UniProt Q13555)
[3] = molecular target: Calcium/calmodulin-dependent protein kinase type II subunit beta (Homo sapiens) (UniProt Q13554)
Calcium/calmodulin-dependent protein kinase type II subunit beta (Homo sapiens), sequence (Q13554 whole entry, canonical isoform): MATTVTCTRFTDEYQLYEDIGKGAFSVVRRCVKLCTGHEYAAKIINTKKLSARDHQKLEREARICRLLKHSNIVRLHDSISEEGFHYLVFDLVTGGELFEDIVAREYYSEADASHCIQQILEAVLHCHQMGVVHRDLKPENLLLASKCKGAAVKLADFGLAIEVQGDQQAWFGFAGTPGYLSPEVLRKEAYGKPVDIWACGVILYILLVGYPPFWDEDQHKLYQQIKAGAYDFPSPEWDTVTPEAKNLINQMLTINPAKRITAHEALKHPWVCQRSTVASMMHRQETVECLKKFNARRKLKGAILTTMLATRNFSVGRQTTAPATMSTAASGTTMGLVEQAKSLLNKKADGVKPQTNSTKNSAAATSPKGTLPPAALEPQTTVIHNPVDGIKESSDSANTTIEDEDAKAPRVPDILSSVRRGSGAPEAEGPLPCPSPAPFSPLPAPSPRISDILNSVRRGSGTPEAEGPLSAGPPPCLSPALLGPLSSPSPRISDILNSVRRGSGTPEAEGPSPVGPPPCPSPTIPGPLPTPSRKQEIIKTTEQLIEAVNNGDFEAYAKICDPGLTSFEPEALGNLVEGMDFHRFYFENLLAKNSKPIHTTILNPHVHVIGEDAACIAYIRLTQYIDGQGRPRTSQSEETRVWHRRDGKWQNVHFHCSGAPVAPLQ

[4] = molecular target: Casein kinase I isoform gamma-3 (Homo sapiens) (UniProt Q9Y6M4)
[5] = molecular target: Serine/threonine-protein kinase PLK1 (Homo sapiens) (UniProt P53350)
[6] = molecular target: Mitogen-activated protein kinase 3 (Homo sapiens, UniProt P27361)
[7] = molecular target: Cyclin-dependent kinase-like 1 (Homo sapiens) (UniProt Q00532)
Cyclin-dependent kinase-like 1 (Homo sapiens), sequence (Q00532 whole entry): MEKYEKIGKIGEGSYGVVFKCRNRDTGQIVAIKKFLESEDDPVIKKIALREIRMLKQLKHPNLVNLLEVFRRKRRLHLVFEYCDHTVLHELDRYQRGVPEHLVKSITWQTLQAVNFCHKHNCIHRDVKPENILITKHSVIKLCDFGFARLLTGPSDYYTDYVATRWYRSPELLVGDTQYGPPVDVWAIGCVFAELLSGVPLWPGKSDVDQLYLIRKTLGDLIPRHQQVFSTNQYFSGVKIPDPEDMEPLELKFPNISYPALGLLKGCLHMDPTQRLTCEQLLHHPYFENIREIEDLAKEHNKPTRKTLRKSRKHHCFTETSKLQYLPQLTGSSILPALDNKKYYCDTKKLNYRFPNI

[8] = molecular target: T1, Serine/threonine-protein kinase VRK1 (Homo sapiens) (UniProt Q99986)
T1 sequence (whole entry): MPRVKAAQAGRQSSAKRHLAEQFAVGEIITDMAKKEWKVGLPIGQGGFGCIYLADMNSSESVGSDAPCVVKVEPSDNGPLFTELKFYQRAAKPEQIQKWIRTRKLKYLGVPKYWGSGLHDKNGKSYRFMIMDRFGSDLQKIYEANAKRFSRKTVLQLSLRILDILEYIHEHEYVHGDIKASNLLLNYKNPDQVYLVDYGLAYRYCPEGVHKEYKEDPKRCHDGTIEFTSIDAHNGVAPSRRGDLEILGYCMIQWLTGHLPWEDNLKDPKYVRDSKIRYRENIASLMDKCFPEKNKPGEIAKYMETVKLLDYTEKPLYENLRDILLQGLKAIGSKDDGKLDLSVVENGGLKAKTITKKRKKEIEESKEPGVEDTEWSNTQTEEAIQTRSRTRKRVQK

[9] = molecular target: Serine/threonine-protein kinase Chk2 (Homo sapiens, UniProt O96017)
[10] = molecular target: Serine/threonine-protein kinase PAK 5 (Homo sapiens) (UniProt Q9P286)
[11] = molecular target: Serine/threonine-protein kinase 26 (Homo sapiens) (UniProt Q9P289)
Serine/threonine-protein kinase 26 (Homo sapiens), sequence (Q9P289 2-416 limits assumed): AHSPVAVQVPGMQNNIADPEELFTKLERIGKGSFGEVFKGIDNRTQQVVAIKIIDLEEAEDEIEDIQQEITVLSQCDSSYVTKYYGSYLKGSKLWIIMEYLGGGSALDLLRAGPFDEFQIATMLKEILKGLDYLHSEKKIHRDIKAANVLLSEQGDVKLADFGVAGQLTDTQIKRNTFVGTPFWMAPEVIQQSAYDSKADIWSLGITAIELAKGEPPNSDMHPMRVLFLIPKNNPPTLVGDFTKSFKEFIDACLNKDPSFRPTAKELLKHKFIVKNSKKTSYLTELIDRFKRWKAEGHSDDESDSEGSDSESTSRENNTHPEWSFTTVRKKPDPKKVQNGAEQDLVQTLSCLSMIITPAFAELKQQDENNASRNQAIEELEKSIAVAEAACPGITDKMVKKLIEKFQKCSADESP

[12] = molecular target: Casein kinase I isoform gamma-2 (Homo sapiens) (UniProt P78368)
Casein kinase I isoform gamma-2 (Homo sapiens), sequence (P78368 whole entry, looked up, canonical isoform): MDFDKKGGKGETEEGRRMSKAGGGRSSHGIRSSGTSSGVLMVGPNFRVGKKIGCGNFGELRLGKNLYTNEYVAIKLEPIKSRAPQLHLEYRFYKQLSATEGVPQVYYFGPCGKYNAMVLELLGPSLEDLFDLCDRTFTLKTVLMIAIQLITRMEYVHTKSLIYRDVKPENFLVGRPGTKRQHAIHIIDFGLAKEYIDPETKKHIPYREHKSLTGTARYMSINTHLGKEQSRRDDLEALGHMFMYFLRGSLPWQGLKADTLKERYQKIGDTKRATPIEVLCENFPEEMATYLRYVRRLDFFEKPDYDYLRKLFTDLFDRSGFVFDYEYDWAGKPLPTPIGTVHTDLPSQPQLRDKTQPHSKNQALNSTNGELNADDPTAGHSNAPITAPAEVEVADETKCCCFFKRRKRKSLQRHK

[13] = molecular target: Serine/threonine-protein kinase OSR1 (Homo sapiens) (UniProt O95747)
[14] = molecular target: STE20-like serine/threonine-protein kinase (Homo sapiens) (UniProt Q9H2G2)
STE20-like serine/threonine-protein kinase (Homo sapiens), sequence (Q9H2G2 whole entry, looked up): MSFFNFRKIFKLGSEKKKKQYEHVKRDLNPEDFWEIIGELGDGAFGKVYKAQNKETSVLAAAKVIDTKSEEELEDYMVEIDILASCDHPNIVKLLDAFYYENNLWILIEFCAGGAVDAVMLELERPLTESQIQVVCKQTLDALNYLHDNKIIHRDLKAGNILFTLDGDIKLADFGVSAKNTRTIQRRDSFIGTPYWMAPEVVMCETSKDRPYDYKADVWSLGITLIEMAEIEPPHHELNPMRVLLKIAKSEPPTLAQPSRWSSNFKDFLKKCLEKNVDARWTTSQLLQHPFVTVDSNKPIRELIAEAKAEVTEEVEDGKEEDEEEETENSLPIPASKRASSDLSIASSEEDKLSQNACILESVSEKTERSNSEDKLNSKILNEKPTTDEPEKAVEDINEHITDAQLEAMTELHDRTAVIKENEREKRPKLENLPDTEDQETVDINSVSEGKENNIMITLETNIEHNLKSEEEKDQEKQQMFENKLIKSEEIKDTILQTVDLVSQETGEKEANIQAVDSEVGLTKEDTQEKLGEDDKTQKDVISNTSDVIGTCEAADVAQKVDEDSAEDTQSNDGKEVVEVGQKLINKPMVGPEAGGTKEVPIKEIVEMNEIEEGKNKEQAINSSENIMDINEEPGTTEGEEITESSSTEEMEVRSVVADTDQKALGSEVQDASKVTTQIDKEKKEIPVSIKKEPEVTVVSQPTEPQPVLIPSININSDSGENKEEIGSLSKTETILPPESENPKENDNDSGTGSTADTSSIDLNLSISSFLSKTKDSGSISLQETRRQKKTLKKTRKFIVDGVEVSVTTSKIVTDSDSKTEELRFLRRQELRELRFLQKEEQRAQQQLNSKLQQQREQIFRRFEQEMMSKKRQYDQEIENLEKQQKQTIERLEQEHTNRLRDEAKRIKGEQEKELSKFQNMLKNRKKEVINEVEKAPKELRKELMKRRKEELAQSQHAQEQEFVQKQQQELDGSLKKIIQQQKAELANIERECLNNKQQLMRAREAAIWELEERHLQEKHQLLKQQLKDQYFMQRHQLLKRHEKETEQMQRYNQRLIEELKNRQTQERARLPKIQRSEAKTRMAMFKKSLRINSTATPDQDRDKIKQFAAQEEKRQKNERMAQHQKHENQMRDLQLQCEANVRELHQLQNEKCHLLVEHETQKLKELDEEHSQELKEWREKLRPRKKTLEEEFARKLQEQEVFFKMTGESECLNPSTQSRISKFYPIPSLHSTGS

[15] = molecular target: Death-associated protein kinase 3 (Homo sapiens) (UniProt O43293)
[16] = molecular target: Tyrosine-protein kinase JAK1 (Homo sapiens) (UniProt P23458)
[17] = molecular target: T2, Dual specificity mitogen-activated protein kinase kinase 6 (Homo sapiens) (UniProt P52564)
T2 sequence (whole entry): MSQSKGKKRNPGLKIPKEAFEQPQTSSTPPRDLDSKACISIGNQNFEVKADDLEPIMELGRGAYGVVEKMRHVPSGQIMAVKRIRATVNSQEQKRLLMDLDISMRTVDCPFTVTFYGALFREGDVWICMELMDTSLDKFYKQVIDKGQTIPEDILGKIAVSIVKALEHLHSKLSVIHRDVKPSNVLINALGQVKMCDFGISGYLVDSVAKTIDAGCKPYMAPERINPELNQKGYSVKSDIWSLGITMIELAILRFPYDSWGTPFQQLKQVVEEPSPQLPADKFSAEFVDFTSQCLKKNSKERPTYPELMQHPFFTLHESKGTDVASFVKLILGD

[18] = molecular target: Calcium/calmodulin-dependent protein kinase type II subunit alpha (Homo sapiens) (UniProt Q9UQM7)
[19] = molecular target: Dual specificity protein kinase CLK1 (Homo sapiens) (UniProt P49759)
Dual specificity protein kinase CLK1 (Homo sapiens), sequence (P49759 whole entry, looked up): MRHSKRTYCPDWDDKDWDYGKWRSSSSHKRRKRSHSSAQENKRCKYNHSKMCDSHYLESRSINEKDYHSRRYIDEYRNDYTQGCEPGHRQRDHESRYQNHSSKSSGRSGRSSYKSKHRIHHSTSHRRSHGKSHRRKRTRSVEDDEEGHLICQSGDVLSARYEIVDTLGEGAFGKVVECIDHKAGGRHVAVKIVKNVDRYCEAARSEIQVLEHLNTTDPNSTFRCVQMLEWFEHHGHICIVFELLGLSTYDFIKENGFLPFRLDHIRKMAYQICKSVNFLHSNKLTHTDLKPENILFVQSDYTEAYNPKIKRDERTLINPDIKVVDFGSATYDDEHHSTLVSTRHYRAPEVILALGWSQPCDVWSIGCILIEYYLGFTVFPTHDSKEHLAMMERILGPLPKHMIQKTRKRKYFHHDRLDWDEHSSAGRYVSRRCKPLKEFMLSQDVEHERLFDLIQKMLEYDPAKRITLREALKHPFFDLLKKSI

[20] = molecular target: Cyclin-dependent kinase 2 (Homo sapiens, UniProt P24941)
[21] = molecular target: T3, Serine/threonine-protein kinase VRK3 (Homo sapiens) (UniProt Q8IV63)
T3 sequence (whole entry): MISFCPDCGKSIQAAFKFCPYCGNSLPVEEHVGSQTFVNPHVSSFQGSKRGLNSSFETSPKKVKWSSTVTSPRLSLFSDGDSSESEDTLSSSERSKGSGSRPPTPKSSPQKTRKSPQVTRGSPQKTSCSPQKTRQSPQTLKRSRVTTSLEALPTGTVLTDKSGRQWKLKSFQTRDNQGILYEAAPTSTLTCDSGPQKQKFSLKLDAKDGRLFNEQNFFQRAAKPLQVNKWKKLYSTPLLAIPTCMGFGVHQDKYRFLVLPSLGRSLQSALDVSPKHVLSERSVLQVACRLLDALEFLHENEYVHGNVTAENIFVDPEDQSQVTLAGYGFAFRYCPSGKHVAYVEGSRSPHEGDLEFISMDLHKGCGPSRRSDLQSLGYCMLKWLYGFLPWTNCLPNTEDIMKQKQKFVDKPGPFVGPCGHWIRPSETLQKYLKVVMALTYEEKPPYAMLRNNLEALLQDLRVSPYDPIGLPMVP

[22] = molecular target: 5'-AMP-activated protein kinase catalytic subunit alpha-2 (Homo sapiens) (UniProt P54646)
[23] = molecular target: Serine/threonine-protein kinase pim-3 (Homo sapiens) (UniProt Q86V86)
[24] = molecular target: Cyclin-dependent kinase 6 (Homo sapiens) (UniProt Q00534)
[25] = molecular target: Cyclin-dependent kinase 16 (Homo sapiens) (UniProt Q00536)
Cyclin-dependent kinase 16 (Homo sapiens), sequence (Q00536 whole entry): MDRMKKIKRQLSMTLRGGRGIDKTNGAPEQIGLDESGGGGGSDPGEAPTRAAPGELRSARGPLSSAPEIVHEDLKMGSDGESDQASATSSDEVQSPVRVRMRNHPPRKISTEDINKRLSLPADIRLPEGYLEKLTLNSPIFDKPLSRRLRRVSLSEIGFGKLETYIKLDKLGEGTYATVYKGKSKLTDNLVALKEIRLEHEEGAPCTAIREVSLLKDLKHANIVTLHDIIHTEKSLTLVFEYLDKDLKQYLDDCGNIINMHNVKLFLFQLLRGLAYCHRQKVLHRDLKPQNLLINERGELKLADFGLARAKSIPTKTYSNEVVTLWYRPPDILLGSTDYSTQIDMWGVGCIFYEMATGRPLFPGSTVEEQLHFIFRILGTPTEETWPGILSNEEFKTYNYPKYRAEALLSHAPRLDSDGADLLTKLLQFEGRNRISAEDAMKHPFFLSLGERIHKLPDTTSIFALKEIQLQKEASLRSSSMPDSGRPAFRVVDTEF

[26] = molecular target: Dual specificity mitogen-activated protein kinase kinase 2 (Homo sapiens, UniProt P36507)
Dual specificity mitogen-activated protein kinase kinase 2, sequence (P36507 whole entry): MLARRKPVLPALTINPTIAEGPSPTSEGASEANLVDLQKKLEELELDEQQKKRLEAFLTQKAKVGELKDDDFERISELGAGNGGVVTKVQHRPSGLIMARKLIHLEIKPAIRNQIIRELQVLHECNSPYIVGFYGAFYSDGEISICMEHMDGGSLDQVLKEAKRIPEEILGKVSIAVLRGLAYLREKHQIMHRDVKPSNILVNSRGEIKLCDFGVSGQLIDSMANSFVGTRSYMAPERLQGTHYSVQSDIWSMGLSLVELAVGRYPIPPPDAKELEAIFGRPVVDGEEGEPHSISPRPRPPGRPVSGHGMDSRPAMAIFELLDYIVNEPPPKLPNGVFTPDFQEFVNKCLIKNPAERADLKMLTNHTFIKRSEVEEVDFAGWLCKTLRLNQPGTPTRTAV

[27] = molecular target: Serine/threonine-protein kinase 38 (Homo sapiens) (UniProt Q15208)
Serine/threonine-protein kinase 38 (Homo sapiens), sequence (Q15208 2-465 limits assumed): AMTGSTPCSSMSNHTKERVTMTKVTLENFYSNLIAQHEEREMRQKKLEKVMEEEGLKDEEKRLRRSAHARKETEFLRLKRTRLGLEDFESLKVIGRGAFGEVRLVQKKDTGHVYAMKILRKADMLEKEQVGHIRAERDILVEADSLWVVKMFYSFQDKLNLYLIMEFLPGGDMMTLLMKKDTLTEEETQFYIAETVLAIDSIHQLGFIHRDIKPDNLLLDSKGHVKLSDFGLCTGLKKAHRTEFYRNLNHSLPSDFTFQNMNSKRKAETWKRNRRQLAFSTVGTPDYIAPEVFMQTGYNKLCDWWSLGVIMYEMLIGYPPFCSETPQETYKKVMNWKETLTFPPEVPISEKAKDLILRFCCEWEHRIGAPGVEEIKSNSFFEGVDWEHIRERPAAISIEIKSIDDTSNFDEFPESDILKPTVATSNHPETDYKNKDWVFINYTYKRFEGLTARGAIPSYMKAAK

[28] = molecular target: Serine/threonine-protein kinase RIO2 (Homo sapiens) (UniProt Q9BVS4)
[29] = molecular target: Ribosomal protein S6 kinase alpha-3 (Homo sapiens) (UniProt P51812)

| Compound | ΔTm [1] [°C] | ΔTm [2] [°C] | ΔTm [4] [°C] | ΔTm [5] [°C] | ΔTm [6] [°C] | ΔTm [7] [°C] | ΔTm [8] [°C] | ΔTm [9] [°C] | ΔTm [10] [°C] | ΔTm [11] [°C] | ΔTm [12] [°C] | ΔTm [13] [°C] | ΔTm [15] [°C] | ΔTm [16] [°C] | ΔTm [17] [°C] | ΔTm [18] [°C] | ΔTm [19] [°C] | ΔTm [21] [°C] | ΔTm [22] [°C] | ΔTm [23] [°C] | other results |
| --- | --- | --- | --- | --- | --- | --- | --- | --- | --- | --- | --- | --- | --- | --- | --- | --- | --- | --- | --- | --- | --- |
| Oc1cc(O)cc(/C=C/c2ccc(O)c(O)c2)c1 [PICEATANNOL] | 0.1 | 0.2 | 0.5 | 2.3 | 0.2 | -0.2 | 0.2 | 1.9 | -0.9 | 0.9 | 0.2 | 1.6 | 4.6 | 2 | 0.1 | 0.8 | 0.9 | -0.2 | 0.2 | 3.5 | ΔTm [3]: -0.2 °C; ΔTm [14]: 1.6 °C; ΔTm [20]: 1.2 °C; ΔTm [24]: 0.3 °C; ΔTm [25]: 0 °C; ΔTm [26]: 0.2 °C; ΔTm [27]: 1.7 °C; ΔTm [28]: 0.6 °C |
| NS(=O)(=O)c1ccc(Nc2nc(OCC3CCCCC3)c3nc[nH]c3n2)cc1 | 0.2 | 0.3 | 2.2 | 5.1 | 0.1 | 0.6 | 1.1 | 2.5 | 2.7 | 2.9 | 2.5 | 1 | 0.8 | 9.5 | 2 | 0.6 | 3.9 | 4.7 | 1.9 | 1.3 | ΔTm [3]: 0.6 °C; ΔTm [14]: 2.2 °C; ΔTm [29]: 1.4 °C; ΔTm [24]: 4.9 °C; ΔTm [25]: 3.2 °C; ΔTm [26]: 0.8 °C; ΔTm [27]: 1.5 °C; ΔTm [28]: 4 °C |
| O=C1Cc2c([nH]c3ccc(Br)cc23)-c2ccccc2N1 [KENPAULLONE] | 0.2 | -0.2 | 0.4 | 0.1 | 0.5 | -0.1 | -0.1 | 6.1 | 3.5 | 1.4 | 0 | 1.8 | 0.4 | 1.7 | 0.4 | 0 | 1.7 | -0.2 | 1.1 | 4.6 | ΔTm [3]: 0.5 °C; ΔTm [14]: 1.7 °C; ΔTm [20]: 3.6 °C; ΔTm [24]: 0.7 °C; ΔTm [25]: 2 °C; ΔTm [26]: -0.3 °C; ΔTm [27]: 1.1 °C; ΔTm [28]: 1.8 °C |
| Brc1c(Br)c(Br)c2[nH]nnc2c1Br [TETRABROMOBENZOTRIAZOLE] | -0.7 | 0.6 | -0.3 | 2.3 | 0 | -0.4 | -1.5 | 0.5 | 0.2 | 1.2 | 0.3 | 2.1 | 3.6 | 0.7 | 2.4 | 1.2 | 3.6 | -1.2 | 0.4 | 4.9 | ΔTm [3]: 1.2 °C; ΔTm [14]: 1.2 °C; ΔTm [29]: 1.7 °C; ΔTm [24]: 0.3 °C; ΔTm [25]: -0.5 °C; ΔTm [26]: 1.6 °C; ΔTm [27]: 1.3 °C; ΔTm [28]: 3.1 °C |
| O=C1Nc2ccccc2/C1=C\c1ccc[nH]1 | -0.5 | 1.4 | 1.8 | -0.6 | 0.3 | 1.4 | 0.3 | 4.1 | 0.7 | 3.5 | 1.6 | 2.7 | -0.2 | 8.5 | 3.4 | 1.2 | 2.7 | 0.1 | 3.2 | 2.1 | ΔTm [3]: 0.6 °C; ΔTm [14]: 3.1 °C; ΔTm [20]: 3.4 °C; ΔTm [24]: 2.6 °C; ΔTm [25]: 1.7 °C; ΔTm [26]: 2.4 °C; ΔTm [27]: 2.7 °C; ΔTm [28]: 3 °C |
| COc1nccc(-c2c(-c3ccc(F)cc3)ncn2[C@H]2CC[C@H](O)CC2)n1 | 0.4 | 0.1 | 1.2 | -0.2 | 0 | -1 | 1.2 | 1.2 | 0.1 | -1.4 | 1 | 0.1 | 0.4 | 0.8 | 0 | 1.5 | 1.7 | -0.1 | 0.7 | -0.2 | ΔTm [14]: 1.9 °C; ΔTm [29]: 0.2 °C; ΔTm [20]: -0.6 °C; ΔTm [24]: 0.1 °C; ΔTm [25]: 0.6 °C; ΔTm [26]: 0.2 °C; ΔTm [27]: 0.4 °C; ΔTm [28]: 0 °C |
| C[S+]([O-])c1ccc(-c2nc(-c3ccc(F)cc3)c(-c3ccncc3)[nH]2)cc1 (centres undefined) [SB-203580] | -0.3 | 0 | 0.4 | 0.2 | 0.1 | -0.4 | -0.1 | -0.5 | -0.1 | -0.5 | 0.7 | -0.2 | -0.4 | 2.3 | -0.1 | 0.3 | -0.3 | 0 | -0.9 | 0 | ΔTm [3]: 0 °C; ΔTm [29]: -0.2 °C; ΔTm [20]: -0.1 °C; ΔTm [24]: -0.1 °C; ΔTm [25]: -0.8 °C; ΔTm [26]: 0.2 °C; ΔTm [27]: 0.2 °C; ΔTm [28]: -0.2 °C |
| Cn1cnc2c(NCc3ccccc3)nc(NCCO)nc21 [OLOMOUCINE] | -0.2 | 0.1 | 0 | -0.9 | 0.2 | 0 | 0.4 | -0.6 | -0.1 | 0.2 | 0.5 | 0.2 | -0.1 | 0 | 0 | -0.3 | -0.2 | 0.1 | 0.2 | -0.1 | ΔTm [3]: 0.2 °C; ΔTm [14]: 0 °C; ΔTm [29]: -0.2 °C; ΔTm [24]: 0 °C; ΔTm [25]: -0.6 °C; ΔTm [26]: -0.4 °C; ΔTm [27]: 0 °C; ΔTm [28]: 0.3 °C |
